Target: T1, KCC2 (Rattus norvegicus, UniProt Q63633)
T1 construct: endogenous in cells; host or cells: primary rat hippocampal neurons (E18-19 Sprague-Dawley)
T1 sequence (Q63633 1-1116 isoform Q63633-2): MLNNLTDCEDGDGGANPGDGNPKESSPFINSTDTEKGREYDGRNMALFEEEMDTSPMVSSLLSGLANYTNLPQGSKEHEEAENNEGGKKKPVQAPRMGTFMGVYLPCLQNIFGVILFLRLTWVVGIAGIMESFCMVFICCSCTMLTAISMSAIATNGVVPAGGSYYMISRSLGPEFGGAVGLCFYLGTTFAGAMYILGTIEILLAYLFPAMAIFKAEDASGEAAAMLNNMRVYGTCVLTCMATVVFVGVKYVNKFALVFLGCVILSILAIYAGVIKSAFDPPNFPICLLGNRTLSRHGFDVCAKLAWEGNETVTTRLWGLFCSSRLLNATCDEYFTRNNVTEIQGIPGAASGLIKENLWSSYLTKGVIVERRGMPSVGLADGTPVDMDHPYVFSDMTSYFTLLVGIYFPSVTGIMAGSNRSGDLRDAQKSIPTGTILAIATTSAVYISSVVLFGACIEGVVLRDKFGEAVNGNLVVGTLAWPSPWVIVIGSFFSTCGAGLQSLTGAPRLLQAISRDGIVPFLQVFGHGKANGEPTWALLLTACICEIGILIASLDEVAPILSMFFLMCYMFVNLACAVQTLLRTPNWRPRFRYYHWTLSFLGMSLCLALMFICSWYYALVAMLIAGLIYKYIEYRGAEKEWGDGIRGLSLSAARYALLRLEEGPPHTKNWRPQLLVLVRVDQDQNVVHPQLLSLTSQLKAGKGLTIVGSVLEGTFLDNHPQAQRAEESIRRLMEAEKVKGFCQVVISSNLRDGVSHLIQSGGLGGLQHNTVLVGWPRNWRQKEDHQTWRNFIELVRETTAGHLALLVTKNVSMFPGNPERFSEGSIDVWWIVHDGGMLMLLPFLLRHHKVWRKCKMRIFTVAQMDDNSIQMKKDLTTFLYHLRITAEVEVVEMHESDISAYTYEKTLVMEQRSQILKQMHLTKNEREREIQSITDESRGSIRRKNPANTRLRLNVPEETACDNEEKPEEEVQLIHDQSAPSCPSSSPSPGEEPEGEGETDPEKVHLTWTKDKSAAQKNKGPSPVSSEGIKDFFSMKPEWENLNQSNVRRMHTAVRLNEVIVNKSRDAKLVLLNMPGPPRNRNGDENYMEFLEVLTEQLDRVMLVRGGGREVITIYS
Assay: KCC2 cluster immunocytochemistry in hippocampal neurons
Type: cell-based
Settings: for change of KCC2 cluster area / change of KCC2 cluster density / change of KCC2 cluster intensity: vs DMSO
Description: […] Drugs were added directly to the culture medium. For electrophysiology experiments, neurons were also recorded in presence of these drugs in the bath. For biochemistry experiments on rat hippocampo-cortical slices, slices were incubated with either DMSO (vehicle), CLP257, PCPZ, WNK463 or sodium orthovanadate for 2 hours in interface chambers set at 37° C. For human tissue experiments, slices were pre-incubated with either DMSO, CLP257 or PCPZ for 2 hours in interface chambers set at 37° C. and then also recorded in presence of these compounds.
Neurons were fixed for 15 min at room temperature (RT), with paraformaldehyde (PFA, 4% w/v in PBS). Cells were then washed in PBS, permeabilized with […] for 4 min at RT and then exposed to a blocking solution containing goat serum (20% v/v; Invitrogen) and 0.1% Triton X100 diluted in PBS. Neurons were incubated for 1 hour at RT with rabbit KCC2 antibody (1: 500; Sigma) and mouse MAP2 antibody (1:500; Chemicon). Neurons were then incubated for 45 min at RT with AlexaFluor 488-conjugated goat anti-mouse antibody (1:400; Jackson Labs) and with Cy3-conjugated goat anti-rabbit antibody (1:400; Jackson Labs). Neurons were then labeled with DAPI (1:2000, 5 min), washed in PBS and mounted on slides with Mowiol 844 (48 mg/ml, Sigma).
Images were acquired using a 63×objective (NA 1.40) mounted on an upright epifluorescence microscope (DM6000, Leica) equipped with a 12-bit cooled CCD camera (Micromax, Roper Scientific) operated with MetaMorph software (Roper Scientific). For KCC2 clusters detection, exposure time was adjusted to obtain best fluorescence to noise ratio and to avoid pixel saturation. This exposure time was maintained unchanged among cells and conditions. For experiments on non-transfected cells and for each neuron, dendritic sections were chosen using MAP2 labeling and then an image with tetramethylrhodamine (TRITC) filter was acquired to visualize KCC2 labeling.
KCC2 clusters analysis was performed using MetaMorph software (Roper Scientific), as previously described. Images were first flatten background filtered (kernel size, 3×3×2) to enhance cluster outline and a user-defined intensity threshold was applied to select clusters and avoid their coalescence. Clusters were delineated in the area of interest (AOI) and the corresponding regions were transferred onto raw images to quantify cluster density (mean KCC2 cluster number per 10 μm^2) and integrated cluster intensity (integrated fluorescence pixel intensity within clusters). For each culture, the analysis was done on 10 cells per condition and approx. 100 clusters per cell.

| SMILES | increased KCC2 clustering observed (10 μM PCPZ, 30 minutes) | change of KCC2 cluster area (10 μM PCPZ, 2 h) | change of KCC2 cluster density (10 μM PCPZ, 2 h) [%] | change of KCC2 cluster intensity (10 μM PCPZ, 2 h) | increased KCC2 clustering observed (100 μM CLP257, 30 minutes) | change of KCC2 cluster area (100 μM CLP257, 2 h) | change of KCC2 cluster density (100 μM CLP257, 2 h) [%] | change of KCC2 cluster intensity (100 μM CLP257, 2 h) |
| --- | --- | --- | --- | --- | --- | --- | --- | --- |
| CN1CCN(CCCN2c3ccccc3Sc3ccc(Cl)cc32)CC1 [PCPZ, prochlorperazine] | not after 30 minutes only | +45.25±18.07% | −6.58±8.37 | +109±61.44% | – | – | – | – |
| O=C1N=C(N2CCCCN2)S/C1=C\c1ccc(F)cc1O [CLP257, (5Z)-5-[(4-Fluoro-2-hydroxyphenyl)methylene]-2-(tetrahydro-1-(2H)-pyridazinyl)-4(5H)-thiazolone] | – | – | – | – | not after 30 minutes only | +36.30±20.40% | −3.48±4.20 | +33.94±13.64% |

— patent US20240197728A1, “METHODS AND PHARMACEUTICAL COMPOSITIONS FOR TREATING REFRACTORY EPILEPSY” (INSERM (INSTITUT NATIONAL DE LA SANTÉ ET DE LA RECHERCHE …, priority 2021, published 2024)
